Legend:
PI3Kdelta = PI3Kdelta (Homo sapiens (Human), UniProt O00329); assay: HTRF PI3K biochemical assay, delta isoform; settings: 0.3 nM enzyme, 100 uM ATP, 5 uM PIP2, form screened per table
Source text: (§1) HTRF PI3K Biochemical Assay to Measure Intrinsic Potency of Compound Inhibitors
(§2) The PI3-Kinase biochemical assays were developed to measure the intrinsic potency and compound dependent inhibition of the alpha, beta, delta, and gamma PI3K isoform enzymes. This assay was developed and further optimized from a kit produced by Upstate (Millipore catalog #33-047) (Millipore Sigma, Billerica Mass., USA) and has been configured for high throughput screening (HTS) and structure-activity relationship (SAR) screening. Briefly, this procedure exploits the exquisite specificity and high affinity binding of […] phosphatidyl(3,4,5)triphosphate (PIP3) to the GRP1 pleckstrin homology (PH) domain to generate the signal. In the absence of PIP3, an HTRF (Homogeneous Time-Resolved Fluorescence energy transfer) complex is formed consisting of europium (u)-labeled anti-GST, GST tagged GRP1-PH domain, biotin-PIP3 (biotinylated-PIP3) and streptavidin conjugated APC (Allophycocyanin). The native PIP3 produced by PI3-Kinase activity disrupts in a competitive manner the biotin-PIP3 from the pleckstrin homology (PH) domain, resulting in the loss of energy transfer (HTRF complex) and a decrease in the signal. The format of this assay is the same for all 4 isoforms of PI3K; the differences lie in the concentration of enzyme used to achieve robust assay window. The alpha, beta, and delta assays are run at 0.5, 1, and 0.3 nM enzymes and the gamma assay is run at 5 nM enzyme. The ATP concentration is 100 uM in the alpha, beta, and delta assays and 50 uM adenosine triphosphate (ATP) in the gamma assay. All reactions are run at 5 uM PIP2.
(§3) Compounds are serially diluted (3-fold in 100% DMSO) across a 384-well polypropylene source plated from column 3 to column 12 and column 13 to column 22, to yield 10 concentration dose response for each test compound. Columns 1, 2, 23 and 24 contain either only DMSO or pharmacological known control inhibitor. Once titrations are made, 2.5 nL of the compounds on 384 well plates are reformatted and transferred by acoustic dispense in quadruplicates to a 1536 assay plate (Greiner) to assay across all four PI3K isoform enzymes.
(§4) The PI3-Kinase biochemical assay was optimized using the HTRF kit provided by Upstate (Millipore). The assay kit contains six reagents: 1) 4× Reaction Buffer; 2) native PIP2 (substrate); 3) Stop (EDTA); 4) Detection Mix A (Streptavidin-APC); 5) Detection Mix B (Eu-labeled Anti-GST plus GST-tagged PH-domain); 6) Detection Mix C. In addition, the following items were obtained or purchased; PI3Kinase (catalog #'s alpha 14-602, beta 14-603, gamma 14-558 and delta 14-604 from Upstate Biotechnology now EMD Millipore, Mahopac, N.Y., USA), dithiothreitol (Sigma-Aldrich Corp. (St. Louis, Mo., USA) Catalog #D-5545), Adenosine-5′ triphosphate (InVitrogen (Waltham, Mass., USA), Cat#AS001A), native PIP3 (PI(3,4,5)P3, diC8, H^+, CELLSIGNALS, INC., (Columbus, Ohio, USA) Cat #907) DMSO ((Sigma-Aldrich Corp. (St. Louis, Mo., USA) Catalog #472301).
(§5) PI3Kinase Reaction Buffer is prepared by dilution the stock 1:4 with de-ionized water. DTT (DL-Dithiothreitol), phosphatidylinositol 4,5-bisphosphate (PIP2) and Biotin-PIP3 were added to 1536 assay plate at a final concentration of 5 mM, […] and 25 nM on the day of use. Enzyme addition and compound pre-incubation are initiated by the addition of 1.25 ul of PI3K (at twice its final concentration) in the 1× reaction buffer to all wells using a BioRaptr™ (Beckman Coulter, Waltham, Mass. USA). Plates are incubated at room temperature for 15 minutes. Reactions are initiated by addition of 1.25 ul of 2× substrate solution (PIP2 and ATP in 1× reaction buffer) using BioRaptr™. Plates are incubated in humidified chamber at room temperature for one hour. Reactions are quenched by addition of 0.625 uL of stop solution to all wells using the BioRaptr™. […]

PI3Kalpha = PI3Kalpha (Homo sapiens (Human), UniProt P42336); assay: HTRF PI3K biochemical assay, alpha isoform (selectivity versus delta); settings: relative ratio PI3K-alpha IC50 value / PI3K-delta IC50 value
PI3Kalpha, sequence (P42336 whole entry, canonical isoform): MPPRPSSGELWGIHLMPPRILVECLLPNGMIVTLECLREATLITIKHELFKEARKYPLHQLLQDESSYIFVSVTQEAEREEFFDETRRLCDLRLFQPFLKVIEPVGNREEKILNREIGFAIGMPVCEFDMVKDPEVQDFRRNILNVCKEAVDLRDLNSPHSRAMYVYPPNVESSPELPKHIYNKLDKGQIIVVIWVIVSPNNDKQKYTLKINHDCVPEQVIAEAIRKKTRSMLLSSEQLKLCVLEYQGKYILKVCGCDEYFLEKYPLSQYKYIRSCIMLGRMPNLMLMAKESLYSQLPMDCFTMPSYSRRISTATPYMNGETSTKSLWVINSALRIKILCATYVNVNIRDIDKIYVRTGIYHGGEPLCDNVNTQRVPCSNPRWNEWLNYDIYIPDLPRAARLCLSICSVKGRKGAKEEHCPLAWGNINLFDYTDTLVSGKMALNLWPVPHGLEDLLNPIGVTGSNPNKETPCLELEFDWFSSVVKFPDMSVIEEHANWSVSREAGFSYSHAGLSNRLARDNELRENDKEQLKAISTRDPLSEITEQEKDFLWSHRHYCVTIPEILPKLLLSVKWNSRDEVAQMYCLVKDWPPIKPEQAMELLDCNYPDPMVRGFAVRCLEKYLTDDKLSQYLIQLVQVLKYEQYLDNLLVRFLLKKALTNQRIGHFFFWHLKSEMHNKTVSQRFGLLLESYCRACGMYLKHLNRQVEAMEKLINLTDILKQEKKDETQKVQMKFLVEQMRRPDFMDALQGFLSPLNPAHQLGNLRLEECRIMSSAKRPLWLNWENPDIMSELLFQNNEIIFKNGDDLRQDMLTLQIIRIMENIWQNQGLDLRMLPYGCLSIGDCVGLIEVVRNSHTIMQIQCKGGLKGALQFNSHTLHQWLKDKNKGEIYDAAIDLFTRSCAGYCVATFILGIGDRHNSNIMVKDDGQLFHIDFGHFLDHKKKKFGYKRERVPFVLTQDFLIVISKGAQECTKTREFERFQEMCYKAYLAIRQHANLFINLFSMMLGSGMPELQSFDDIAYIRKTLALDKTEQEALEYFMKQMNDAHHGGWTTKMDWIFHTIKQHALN
PI3Kalpha, sequence (P27986 whole entry partner, canonical isoform): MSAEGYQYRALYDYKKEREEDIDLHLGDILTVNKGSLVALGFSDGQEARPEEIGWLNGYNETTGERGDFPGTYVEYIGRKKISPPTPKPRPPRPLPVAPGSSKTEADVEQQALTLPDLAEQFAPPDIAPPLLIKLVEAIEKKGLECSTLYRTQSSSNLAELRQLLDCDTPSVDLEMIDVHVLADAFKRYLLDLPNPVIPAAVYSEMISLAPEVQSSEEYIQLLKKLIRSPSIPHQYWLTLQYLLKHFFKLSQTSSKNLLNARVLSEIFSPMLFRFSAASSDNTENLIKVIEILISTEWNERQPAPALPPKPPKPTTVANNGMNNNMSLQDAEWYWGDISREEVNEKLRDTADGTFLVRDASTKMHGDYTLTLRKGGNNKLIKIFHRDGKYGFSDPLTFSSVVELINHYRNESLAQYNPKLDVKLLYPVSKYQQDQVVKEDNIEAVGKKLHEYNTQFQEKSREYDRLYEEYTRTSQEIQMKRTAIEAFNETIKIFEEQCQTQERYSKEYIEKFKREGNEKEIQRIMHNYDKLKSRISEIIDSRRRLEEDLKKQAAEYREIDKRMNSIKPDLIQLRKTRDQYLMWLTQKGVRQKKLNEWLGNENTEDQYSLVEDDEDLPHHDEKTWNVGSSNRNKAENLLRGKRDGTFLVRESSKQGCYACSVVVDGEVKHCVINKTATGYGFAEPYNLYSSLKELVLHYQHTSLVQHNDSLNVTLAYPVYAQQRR
Source text: as §1, §2, §3, §4, §5

PI3Kdelta, sequence (O00329 whole entry, canonical isoform): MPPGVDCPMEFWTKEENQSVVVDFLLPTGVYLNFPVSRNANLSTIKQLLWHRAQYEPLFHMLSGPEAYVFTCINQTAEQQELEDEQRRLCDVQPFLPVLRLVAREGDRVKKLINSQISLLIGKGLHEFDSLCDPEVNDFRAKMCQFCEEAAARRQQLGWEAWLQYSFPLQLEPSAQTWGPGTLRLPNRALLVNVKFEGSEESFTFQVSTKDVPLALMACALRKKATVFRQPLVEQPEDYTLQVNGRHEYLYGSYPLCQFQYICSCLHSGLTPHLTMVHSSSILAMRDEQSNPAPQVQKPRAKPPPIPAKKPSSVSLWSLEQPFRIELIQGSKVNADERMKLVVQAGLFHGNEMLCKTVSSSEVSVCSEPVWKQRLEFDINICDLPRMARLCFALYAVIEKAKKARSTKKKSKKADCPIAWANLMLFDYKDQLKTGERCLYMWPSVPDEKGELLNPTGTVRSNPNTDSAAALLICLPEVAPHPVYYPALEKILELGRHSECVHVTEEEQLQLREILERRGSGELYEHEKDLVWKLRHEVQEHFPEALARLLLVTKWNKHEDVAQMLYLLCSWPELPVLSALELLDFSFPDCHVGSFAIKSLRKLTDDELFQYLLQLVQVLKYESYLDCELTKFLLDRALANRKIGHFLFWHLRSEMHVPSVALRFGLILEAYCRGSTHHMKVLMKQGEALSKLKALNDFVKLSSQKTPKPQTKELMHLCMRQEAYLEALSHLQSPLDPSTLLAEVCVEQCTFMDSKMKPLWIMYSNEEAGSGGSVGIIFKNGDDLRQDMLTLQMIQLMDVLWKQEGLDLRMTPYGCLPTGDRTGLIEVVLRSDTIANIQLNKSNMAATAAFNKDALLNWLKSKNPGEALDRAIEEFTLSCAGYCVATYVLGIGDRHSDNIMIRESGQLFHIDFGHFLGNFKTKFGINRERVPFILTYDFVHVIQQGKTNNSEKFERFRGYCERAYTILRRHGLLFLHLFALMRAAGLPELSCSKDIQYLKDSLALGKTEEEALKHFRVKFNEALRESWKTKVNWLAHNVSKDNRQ
PI3Kdelta, sequence (P27986 whole entry partner, canonical isoform): as the sequence (P27986 whole entry partner, canonical isoform) above

IC50 (PI3Kdelta) [nM]	Selectivity versus PI3Kalpha (PI3Kalpha)	SMILES
500	>10	Cn1cc(-c2ncc(C#N)c(N3CC4C[C@H]3CN4C(=O)c3cccs3)n2)cn1 (stereo in doubt) [Compound 2-10, 2-(1-methyl-1H-pyrazol-4-yl)-4-[(1S,4R)-5-(thiophen-2-ylcarbonyl)-2,5-diazabicyclo[2.2.1]hept-2-yl]pyrimidine-5-carbonitrile]
1100	>10	Cn1cc(-c2ncc(C#N)c(N3CC4C[C@H]3CN4C(=O)c3cocn3)n2)cn1 (stereo in doubt) [Compound 2-11, 2-(1-methyl-1H-pyrazol-4-yl)-4-[(1S,4R)-5-(1,3-oxazol-4-ylcarbonyl)-2,5-diazabicyclo[2.2.1]hept-2-yl]pyrimidine-5-carbonitrile]
480	10	Cn1cc(-c2ncc(C#N)c(N3CC4C[C@H]3CN4C(=O)CC3COC3)n2)cn1 (stereo in doubt) [Compound 2-12, 2-(1-methyl-1H-pyrazol-4-yl)-4-[(1S,4R)-5-(oxetan-3-ylacetyl)-2,5-diazabicyclo[2.2.1]hept-2-yl]pyrimidine-5-carbonitrile]
470	>10	CC(C)S(=O)(=O)N1C[C@@H]2CC1CN2c1nc(-c2cnn(C)c2)ncc1C#N (stereo in doubt) [Compound 2-13, 4-{(1S,4R)-5-[(1-methylethyl)sulfonyl]-2,5-diazabicyclo[2.2.1]hept-2-yl}-2-(1-methyl-1H-pyrazol-4-yl)pyrimidine-5-carbonitrile]
620	>10	CCCS(=O)(=O)N1C[C@@H]2CC1CN2c1nc(-c2cnn(C)c2)ncc1C#N (stereo in doubt) [Compound 2-14, 2-(1-methyl-1H-pyrazol-4-yl)-4-[(1S,4R)-5-(propylsulfonyl)-2,5-diazabicyclo[2.2.1]hept-2-yl]pyrimidine-5-carbonitrile]
650	>10	Cn1cc(-c2ncc(C#N)c(N3CC4C[C@H]3CN4S(=O)(=O)C3CCCC3)n2)cn1 (stereo in doubt) [Compound 2-15, 4-[(1S,4R)-5-(cyclopentylsulfonyl)-2,5-diazabicyclo[2.2.1]hept-2-yl]-2-(1-methyl-1H-pyrazol-4-yl)pyrimidine-5-carbonitrile]
970	>10	Cn1cc(-c2ncc(C#N)c(N3CC4C[C@H]3CN4CCCF)n2)cn1 (stereo in doubt) [Compound 2-16, 4-[(1S,4R)-5-(3-fluoropropyl)-2,5-diazabicyclo[2.2.1]hept-2-yl]-2-(1-methyl-1H-pyrazol-4-yl)pyrimidine-5-carbonitrile]

Continued, compound first:

SMILES	IC50 (PI3Kdelta) [nM]	Selectivity versus PI3Kalpha (PI3Kalpha)
N#Cc1cnc(-c2cccc3cnccc23)nc1N1C[C@@H]2CC1CN2c1cccc(F)c1 (stereo in doubt) [Compound 1-21, 4-[(1R,4S)-5-(3-fluorophenyl)-2,5-diazabicyclo[2.2.1]hept-2-yl]-2-isoquinolin-5-ylpyrimidine-5-carbonitrile]	110	>10
N#Cc1cnc(N2CCc3[nH]ncc3C2)nc1N1CC2C[C@H]1CN2c1cccc(F)c1 (stereo in doubt) [Compound 1-22, 4-[(1S,4R)-5-(3-fluorophenyl)-2,5-diazabicyclo[2.2.1]hept-2-yl]-2-(1,4,6,7-tetrahydro-5H-pyrazolo[4,3-c]pyridin-5-yl)pyrimidine-5-carbonitrile]	950	10
N#Cc1cnc(N2CCOCC2)nc1N1CC2C[C@H]1CN2c1cccc(F)c1 (stereo in doubt) [Compound 1-23, 4-[(1S,4R)-5-(3-fluorophenyl)-2,5-diazabicyclo[2.2.1]hept-2-yl]-2-morpholin-4-ylpyrimidine-5-carbonitrile]	400	>10
Cn1cc(-c2ncc(C#N)c(N3CC4C[C@H]3CN4C(=O)C3CC3)n2)cn1 (stereo in doubt) [Compound 2-1, 4-[(1S,4R)-5-(cyclopropylcarbonyl)-2,5-diazabicyclo[2.2.1]hept-2-yl]-2-(1-methyl-1H-pyrazol-4-yl)pyrimidine-5-carbonitrile]	160	>10
Cn1cc(-c2ncc(C#N)c(N3CC4C[C@H]3CN4S(=O)(=O)C3CC3)n2)cn1 (stereo in doubt) [Compound 2-2, 4-[(1S,4R)-5-(cyclopropylsulfonyl)-2,5-diazabicyclo[2.2.1]hept-2-yl]-2-(1-methyl-1H-pyrazol-4-yl)pyrimidine-5-carbonitrile]	1200	>10
Cn1cc(-c2ncc(C#N)c(N3CC4C[C@H]3CN4CC3CC3)n2)cn1 (stereo in doubt) [Compound 2-3, 4-[(1S,4R)-5-(cyclopropylmethyl)-2,5-diazabicyclo[2.2.1]hept-2-yl]-2-(1-methyl-1H-pyrazol-4-yl)pyrimidine-5-carbonitrile]	1400	8
CCNC(=O)N1C[C@@H]2CC1CN2c1nc(-c2cnn(C)c2)ncc1C#N (stereo in doubt) [Compound 2-4, (1R,4S)-5-[5-cyano-2-(1-methyl-1H-pyrazol-4-yl)pyrimidin-4-yl]-N-ethyl-2,5-diazabicyclo[2.2.1]heptane-2-carboxamide]	2200	5
Cn1cc(-c2ncc(C#N)c(N3CC4C[C@H]3CN4C(=O)C(C)(C)C)n2)cn1 (stereo in doubt) [Compound 2-5, 4-[(1S,4R)-5-(2,2-dimethylpropanoyl)-2,5-diazabicyclo[2.2.1]hept-2-yl]-2-(1-methyl-1H-pyrazol-4-yl)pyrimidine-5-carbonitrile]	190	>10
Cn1cc(-c2ncc(C#N)c(N3CC4C[C@H]3CN4C(=O)C(C)(C)CF)n2)cn1 (stereo in doubt) [Compound 2-6, 4-[(1S,4R)-5-(3-fluoro-2,2-dimethylpropanoyl)-2,5-diazabicyclo[2.2.1]hept-2-yl]-2-(1-methyl-1H-pyrazol-4-yl)pyrimidine-5-carbonitrile]	160	>10
Cn1cc(-c2ncc(C#N)c(N3CC4C[C@H]3CN4C(=O)C3(C)COC3)n2)cn1 (stereo in doubt) [Compound 2-7, 4-{(1S,4R)-5-[(3-methyloxetan-3-yl)carbonyl]-2,5-diazabicyclo[2.2.1]hept-2-yl}-2-(1-methyl-1H-pyrazol-4-yl)pyrimidine-5-carbonitrile]	320	>10
COCC1(C(=O)N2C[C@@H]3CC2CN3c2nc(-c3cnn(C)c3)ncc2C#N)CC1 (stereo in doubt) [Compound 2-8, 4-[(1S,4R)-5-{[1-(methoxymethyl)cyclopropyl]carbonyl}-2,5-diazabicyclo[2.2.1]hept-2-yl]-2-(1-methyl-1H-pyrazol-4-yl)pyrimidine-5-carbonitrile]	270	>10
Cn1cc(-c2ncc(C#N)c(N3CC4C[C@H]3CN4C(=O)C3CCC3)n2)cn1 (stereo in doubt) [Compound 2-9, 4-[(1S,4R)-5-(cyclobutylcarbonyl)-2,5-diazabicyclo[2.2.1]hept-2-yl]-2-(1-methyl-1H-pyrazol-4-yl)pyrimidine-5-carbonitrile]	330	>10

From patent US11230547B2, “Purine inhibitors of human phosphatidylinositol 3-kinase delta” (Merck Sharp & Dohme Corp., priority 2017, dated 2022)
